# Laboratory results reported in article PMC3586143 (Drugs in R&D, 2012).
# Read-outs that look alike come from different tables or passages of the source.
# What was measured:
# [1] = in vivo; for tmax, median (range): 300 mg
# clinical = settings: male, human, in vivo, po, 200 mg/day; for AUC: AUC24, gmean; for Cmax: gmean
# [2] = test system: vascular endothelial growth factor and epidermal growth factor; settings: cellular assays for VEGF and EGF; cited from earlier work
# [3] = for half-life: t½, gmean (CV%)
# healthy male subjects [4] = experiment: Study A: safety and tolerability assessments; type: in vivo
# [5] = for increase in AUC504: vandetanib + itraconazole compared with vandetanib alone
# healthy male subjects [6] = experiment: Study B: safety and tolerability assessments; type: in vivo
structure (smiles),measurement,setting,value
COc1cc2c(Nc3ccc(Br)cc3F)ncnc2cc1OCC1CCNCC1 [N-desmethylvandetanib],AUC504 of metabolite as % of AUC504 of vandetanib,[1],≈ 7%
same,"tmax, median (range)",[1],5 h
CC(O)C(C)n1ncn(-c2ccc(N3CCN(c4ccc(OCC5COC(Cn6cncn6)(c6ccc(Cl)cc6Cl)O5)cc4)CC3)cc2)c1=O (stereo not shown) [hydroxy-itraconazole],AUC,clinical,7690 ng·h/mL
same,Cmax,clinical,413 ng/mL
"CCC(C)n1ncn(-c2ccc(N3CCN(c4ccc(OCC5COC(Cn6cncn6)(c6ccc(Cl)cc6Cl)O5)cc4)CC3)cc2)c1=O (stereo not shown) [itraconazole, reference compound]",AUC,clinical,5040 ng·h/mL
same,Cmax,clinical,424 ng/mL
COc1cc2c(Nc3ccc(Br)cc3F)ncnc2cc1OCC1CC[N+](C)([O-])CC1 (stereo not shown) [vandetanib N-oxide],activity relative to vandetanib (fold less active),[2],> 50 fold
same,increase in AUCct,[1],126%
same,time post-dose by which plasma concentrations were nonquantifiable,[1],96 to 240 h
same,"tmax, median (range)",[1],7 h
COc1cc2c(Nc3ccc(Br)cc3F)ncnc2cc1OCC1CCN(C)CC1 [vandetanib],median time to Cmax,"[3]; both studies (A and B), vandetanib 300 mg single dose",5 to 6 h
same,Tmax,"[3]; male, human, plasma, oral, 300 mg",6 h
same,half-life,"[3]; male, human, plasma, oral, 300 mg, after vandetanib 300 mg alone",218 h
same,half-life,"[3]; male, human, plasma, oral, after vandetanib 300 mg + rifampicin",116 h
same,tolerability,healthy male subjects [4]; single dose 300 mg,well tolerated
same,change in mean corrected QT (QTC) interval,healthy male subjects [4]; vandetanib alone or in combination with rifampicin,no clinically important changes
same,subjects with increase from baseline in QTC interval of >60 ms,healthy male subjects [4]; vandetanib in combination with rifampicin,One subject
same,subjects reporting adverse events,healthy male subjects [4]; vandetanib in the presence of rifampicin,31.3%
same,Tmax,"[5]; male, human, in vivo, 300 mg",5 h
same,increase in AUC504,[5],9%
same,increase in AUC504,[5]; listed as Vandetanib,about 9%
same,subjects with increase from baseline in QTC of >60 ms,healthy male subjects [6],Three subjects
same,increase in mean QTC interval after the dose,healthy male subjects [6]; at each timepoint,≤ 20 ms
same,tolerability,healthy male subjects [6]; single dose 300 mg,well tolerated
same,subjects reporting adverse events,healthy male subjects [6]; vandetanib in the absence of itraconazole,31.3%
